# In ChEMBL document CHEMBL1201862, “PubChem BioAssay data set” (2004):
# Active and inactive are the calls of the source.
# Legend:
# H4 = assay: Luminescence Cell-Based Dose Response HTS to Identify Activators of 5'UTR Stem-Loop Driven Prion Protein mRNA Translation in H4 Neuroglioblastoma Cells. [Related pubchem assays: 1829 (Project Summary), 1814 (Primary HTS)]; format: functional; conditions: Homo sapiens
# [1] = NIH3T3 cell viability loss – ATP luminescence, mouse fibroblasts, counter-screen, dose response (AID 2010); format: functional, cell-based;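 further: cells exposed to compound for about 90 hours before reading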
# [2] = Trypanosoma cruzi growth suppression in host cells – NIH3T3 host cells, beta-gal luminescence, confirmation (AID 2044); format: functional, cell-based;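 further: intracellular parasites grown in NIH/3T3 mouse fibroblasts as host cells; luminescent beta-galactosidase reporter signal from transgenic T. cruzi replicating inside host cells; inhibitors lower the luminescence signal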
# Cytochrome P450 2C19 = Cytochrome P450 2C19 (Homo sapiens, UniProt P33261); assay: Cytochrome panel assay with activity outcomes. Panel member name: p450-cyp2c19 Compounds with AC50 equal or less than 10 uM are considered active; format: functional
# Cytochrome P450 2C9 = Cytochrome P450 2C9 (Homo sapiens, UniProt P11712)
# Cytochrome P450 3A4 = Cytochrome P450 3A4 (Homo sapiens, UniProt P08684);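 further: CYP3A4 tested as one member of a cytochrome P450 panel screen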
# [3] = target: T1, Rac GTPase-activating protein 1 (Homo sapiens, UniProt Q9H0H5); assay: blockers of MgcRacGAP-driven Rac1 GTP hydrolysis – biochemical, ADP Hunter fluorescence, primary and confirmatory, confirmation (AID 624330); format: functional
# T1 sequence (Q9H0H5 whole entry): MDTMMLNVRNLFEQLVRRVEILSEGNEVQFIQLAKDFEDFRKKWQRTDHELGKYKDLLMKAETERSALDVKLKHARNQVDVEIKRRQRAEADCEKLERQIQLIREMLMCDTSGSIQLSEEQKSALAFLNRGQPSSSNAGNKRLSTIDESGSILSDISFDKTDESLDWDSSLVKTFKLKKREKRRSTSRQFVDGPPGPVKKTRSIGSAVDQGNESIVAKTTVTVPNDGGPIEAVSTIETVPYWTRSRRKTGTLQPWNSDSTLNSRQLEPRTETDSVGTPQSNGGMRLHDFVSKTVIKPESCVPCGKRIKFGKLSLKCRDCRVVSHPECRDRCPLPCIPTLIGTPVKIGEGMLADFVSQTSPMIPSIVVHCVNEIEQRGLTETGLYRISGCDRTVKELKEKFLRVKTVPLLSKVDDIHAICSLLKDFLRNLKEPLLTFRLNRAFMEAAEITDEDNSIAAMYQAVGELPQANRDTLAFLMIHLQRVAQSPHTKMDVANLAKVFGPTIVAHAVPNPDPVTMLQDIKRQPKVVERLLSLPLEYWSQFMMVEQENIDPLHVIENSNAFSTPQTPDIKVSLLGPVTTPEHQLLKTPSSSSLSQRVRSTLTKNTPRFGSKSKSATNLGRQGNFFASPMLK
# [4] = test system: Streptococcus sp. 'group A'; assay: Streptococcus pyogenes SK(-)GAS viability under kanamycin – luminescence, BacTiterGlo, confirmation, counter-screen for streptokinase expression inhibitor project, dose response (AID 1900); format: functional, organism-based; conditions: Streptococcus sp. 'group A'
# Streptococcus = assay: GAS UMAA2166 growth inhibition – luminescence, BacTiterGlo, counter-screen for streptokinase expression inhibitor project, dose response (AID 1915); format: functional, organism-based; conditions: Streptococcus;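 further: potency for reduction of bacterial viability or growth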
# [5] = Luminescence Cell-Based Dose Response HTS to Identify Activators of Luciferase Translation or Activity in H4 […] Cells. [Related pubchem assays: 1829 (Project Summary), 1814 (Primary HTS)]; format: functional
# Chain of Cytochrome P450 2C19 (P33261 whole entry): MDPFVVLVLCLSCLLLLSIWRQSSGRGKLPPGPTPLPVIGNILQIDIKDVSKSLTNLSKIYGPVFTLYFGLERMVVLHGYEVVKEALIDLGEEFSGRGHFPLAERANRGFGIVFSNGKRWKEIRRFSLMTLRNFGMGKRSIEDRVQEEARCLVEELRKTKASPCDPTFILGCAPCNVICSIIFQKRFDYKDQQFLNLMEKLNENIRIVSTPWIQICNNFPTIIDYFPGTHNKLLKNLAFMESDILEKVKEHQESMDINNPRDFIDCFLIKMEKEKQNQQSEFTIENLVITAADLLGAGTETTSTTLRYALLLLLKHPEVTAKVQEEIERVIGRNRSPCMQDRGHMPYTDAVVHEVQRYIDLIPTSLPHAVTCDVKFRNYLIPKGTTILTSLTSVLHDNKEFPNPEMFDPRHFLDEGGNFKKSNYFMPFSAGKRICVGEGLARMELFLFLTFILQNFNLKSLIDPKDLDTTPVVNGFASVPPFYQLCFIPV
# Chain of Cytochrome P450 2C9 (P11712 whole entry): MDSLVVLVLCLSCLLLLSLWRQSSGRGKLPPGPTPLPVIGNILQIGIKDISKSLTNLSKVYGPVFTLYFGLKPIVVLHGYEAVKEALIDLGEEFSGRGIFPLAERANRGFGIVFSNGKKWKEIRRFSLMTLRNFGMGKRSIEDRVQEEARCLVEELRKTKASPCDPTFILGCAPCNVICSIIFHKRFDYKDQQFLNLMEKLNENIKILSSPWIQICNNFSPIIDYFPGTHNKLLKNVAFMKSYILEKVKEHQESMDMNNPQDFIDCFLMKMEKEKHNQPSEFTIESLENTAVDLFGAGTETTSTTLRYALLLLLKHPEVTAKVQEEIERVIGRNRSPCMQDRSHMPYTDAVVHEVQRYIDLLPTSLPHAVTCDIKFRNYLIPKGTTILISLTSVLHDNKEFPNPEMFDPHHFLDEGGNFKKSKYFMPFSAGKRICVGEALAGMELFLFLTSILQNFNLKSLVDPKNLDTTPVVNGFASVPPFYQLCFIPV
# Chain of Cytochrome P450 3A4 (P08684 whole entry): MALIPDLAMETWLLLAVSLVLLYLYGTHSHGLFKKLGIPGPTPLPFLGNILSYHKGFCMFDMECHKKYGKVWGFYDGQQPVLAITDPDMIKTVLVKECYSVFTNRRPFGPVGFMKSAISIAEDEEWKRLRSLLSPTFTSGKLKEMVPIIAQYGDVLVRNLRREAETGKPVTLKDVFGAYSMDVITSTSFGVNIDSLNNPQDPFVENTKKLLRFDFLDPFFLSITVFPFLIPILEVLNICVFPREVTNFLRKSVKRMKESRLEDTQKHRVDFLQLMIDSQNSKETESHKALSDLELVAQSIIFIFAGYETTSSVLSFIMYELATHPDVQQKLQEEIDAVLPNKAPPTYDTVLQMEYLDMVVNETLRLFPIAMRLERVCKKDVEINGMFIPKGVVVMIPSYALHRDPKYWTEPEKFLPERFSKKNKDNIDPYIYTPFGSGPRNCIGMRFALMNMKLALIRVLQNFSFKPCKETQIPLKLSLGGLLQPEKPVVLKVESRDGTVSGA
compound,measurement,setting,value
Cc1ccc(-n2c(C)cc(C(=O)COC(=O)c3cccnc3O)c2C)cc1,EC50,H4,> 120 µM (not active)
CCOc1ccc(-n2c(SCc3nc(-c4ccc(C)cc4)no3)nnc2-c2ccncc2)cc1,EC50,[1],6.76 µM (active)
same,EC50,[2],1.31 µM (active)
COc1ccc(Cc2noc(CN3CCCN(Cc4ccc(F)cc4)CC3)n2)cc1OC,EC50,[1],> 60 µM (not active)
same,EC50,[2],0.248 µM (active)
COc1ccc(/C=C/C(=O)N2c3ccccc3Sc3ccc(C(F)(F)F)cc32)cc1,EC50,[1],> 60 µM (not active)
same,EC50,[2],2.8 µM (active)
Cc1cc(N2C(=O)C(O)=C(C(=O)c3cccs3)C2c2cccc(O)c2)no1 (stereo not drawn),AC50,Cytochrome P450 2C19; read-out: AC50,31.6 µM (inconclusive)
Cc1ccsc1C(=O)C1CCCN(Cc2cnc(N3CCOCC3)s2)C1 (stereo not drawn),EC50,[1],> 60 µM (not active)
same,EC50,[2],0.146 µM (active)
COC(=O)Cn1cc(/C=N/NC(=O)c2ccc(C#N)cc2F)c2ccccc21,AC50,Cytochrome P450 2C9,8.91 µM (inconclusive)
same,AC50,Cytochrome P450 2C19; read-out: AC50,22.4 µM (inconclusive)
Cc1ccccc1-c1ccc2ncnc(N(C)C)c2c1,AC50,Cytochrome P450 2C9,0.398 µM (inconclusive)
Cc1ccc(N[C@H](c2ccccc2)c2ccc3cccnc3c2O)cc1,AC50,Cytochrome P450 3A4,3.16 µM (inconclusive)
same,AC50,Cytochrome P450 2C9,3.98 µM (inconclusive)
same,AC50,Cytochrome P450 2C19; read-out: AC50,3.98 µM (inconclusive)
CCOc1cc(C=NNC(=O)CCCC(=O)NN=Cc2ccc(O)c(OCC)c2)ccc1O,IC50,[3],50.4 µM (active)
COc1ccccc1CN1CCN(Cc2nc(-c3cccs3)no2)CC1,EC50,[1],> 60 µM (not active)
same,EC50,[2],0.841 µM (active)
Cc1nc2ccc(C(=O)Nc3ccc(N(C)C)cc3)cc2s1,IC50,[3],39.3 µM (active)
Cc1cccc(N/C=C(\[N+](=O)[O-])S(=O)(=O)c2ccccc2)c1C,EC50,[1],> 60 µM (inconclusive)
same,EC50,[2],> 60 µM (not active)
Cc1ccc(NC(=O)CN2C(=O)S/C(=C\c3cccn3C)C2=O)cc1,AC50,Cytochrome P450 3A4,7.08 µM (inconclusive)
O=C(O)/C(Cc1ccc([N+](=O)[O-])cc1)=N/O,AC50,Cytochrome P450 2C19; read-out: AC50,5.01 µM (inconclusive)
CCN(CC)CCCNCC(=O)Nc1cc(C)on1,IC50,[3],99.4 µM (active)
CCC1Oc2ccc(C)cc2N(CC(=O)N(Cc2cccnc2)Cc2cccc(F)c2)C1=O (stereo not drawn),EC50,[1],> 60 µM (not active)
same,EC50,[2],0.145 µM (active)
Cc1cccc(CNc2ncncc2-c2ccccc2C)c1,AC50,Cytochrome P450 2C9,1.26 µM (inconclusive)
N=C(NC(=O)c1ccccc1F)Nc1nc2ccccc2o1,AC50,Cytochrome P450 2C19; read-out: AC50,22.4 µM (inconclusive)
NC(S)=NNc1ccnc2cc(Cl)ccc12,IC50,[3],110 µM (active)
CCOc1ccc(C(=O)C2=C(O)C(=O)N(CCOCCO)C2c2ccccc2OC)cc1 (stereo not drawn),AC50,Cytochrome P450 2C19; read-out: AC50,25.1 µM (inconclusive)
COCCNc1nc(-c2ccccc2C)nc2ccccc12,AC50,Cytochrome P450 3A4,12.6 µM (inconclusive)
COc1ccc(C(CC(=O)Nc2cc(OC)cc(OC)c2)n2cccc2)cc1 (stereo not drawn),EC50,[1],> 60 µM (not active)
same,EC50,[2],2.45 µM (active)
CCC(=O)N1N/C(=C2/C(=O)NC(=O)N(CCc3ccccc3)C2=O)CC1c1ccc(OC)c(OC)c1 (stereo not drawn),EC50,[4],1.4 µM (active)
same,EC50,Streptococcus,26.4 µM (active)
COCCn1c(=O)c(-c2ccccc2)nc2cnc(OCc3ccccc3)nc21,AC50,Cytochrome P450 2C19; read-out: AC50,20 µM (inconclusive)
COc1ccc(S(=O)(=O)N2CCCN(CC(=O)Nc3ccc(OC)c(Cl)c3)CC2)cc1,AC50,Cytochrome P450 2C9,39.8 µM (inconclusive)
CC(=O)NCCNc1ncnc2ccc(-c3cccc(NS(C)(=O)=O)c3)cc12,AC50,Cytochrome P450 3A4,7.94 µM (inconclusive)
Cc1cc(/C=C(\C#N)C(=O)NC2CC2)c(C)[nH]1,EC50,[5],0.857 µM (active)
same,EC50,H4,> 120 µM (not active)
Cn1c(=O)c2c(nc(Cc3ccccc3)n2CC(=O)O)n(C)c1=O,AC50,Cytochrome P450 2C19,inconclusive
Cc1ccc(N=Nc2c(=O)[nH]n3c(C)cc(C)nc23)cc1,AC50,Cytochrome P450 3A4,25.1 µM (inconclusive)
same,AC50,Cytochrome P450 2C19; read-out: AC50,39.8 µM (inconclusive)
COCCn1c(=O)c(C)nc2cnc(Oc3ccccc3)nc21,AC50,Cytochrome P450 3A4,25.1 µM (inconclusive)
same,AC50,Cytochrome P450 2C19; read-out: AC50,39.8 µM (inconclusive)
CCOc1cc(/C=N/NC(=O)c2cc(C3CC3)[nH]n2)ccc1O,IC50,[3],54.9 µM (active)
CCn1nnnc1SCC(=O)c1ccc2c(c1)OCCO2,AC50,Cytochrome P450 2C9,17.8 µM (inconclusive)
